In ChEMBL document CHEMBL6096690, “Synthesis and Biological Evaluation of Peripheral HTR2A Antagonists for Colorectal Cancer” (J Med Chem, 2025):
Calls of active or inactive are those of the source. The rule behind the calls is not given here.

Legend:
SW480 = assay: Antiproliferative activity against human SW480 cells assessed as inhibition of cell proliferation at 1.5 to 12.5 uM by CCK-8 assay; format: functional, cell-based; conditions: dose 1.5-12.5 µM, time 24-48 hrs
[1] = molecular target: T1, 5-hydroxytryptamine receptor 2C (Homo sapiens) (UniProt P28335); assay: Inhibition of 5HTR2C (unknown origin) at 1 uM relative to control
T1 sequence (whole entry): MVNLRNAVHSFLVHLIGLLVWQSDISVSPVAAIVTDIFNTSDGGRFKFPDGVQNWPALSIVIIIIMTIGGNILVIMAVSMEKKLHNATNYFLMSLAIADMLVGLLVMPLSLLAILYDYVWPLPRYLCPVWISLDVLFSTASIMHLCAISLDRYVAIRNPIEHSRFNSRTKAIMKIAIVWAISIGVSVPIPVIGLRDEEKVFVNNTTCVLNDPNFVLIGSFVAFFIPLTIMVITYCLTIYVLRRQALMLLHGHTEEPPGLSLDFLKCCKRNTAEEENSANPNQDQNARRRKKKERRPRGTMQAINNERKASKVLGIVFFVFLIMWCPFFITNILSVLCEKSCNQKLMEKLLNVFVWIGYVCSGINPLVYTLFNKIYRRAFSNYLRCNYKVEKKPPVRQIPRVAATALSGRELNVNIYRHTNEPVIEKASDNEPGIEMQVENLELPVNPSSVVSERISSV

SW-620 [2] = assay: Antiproliferative activity against human SW620 cells assessed as inhibition of cell proliferation at 1.5 to 12.5 uM by CCK-8 assay; format: functional, cell-based; conditions: dose 1.5-12.5 µM, time 24-48 hrs
[3] = molecular target: 5-hydroxytryptamine receptor 5A (Homo sapiens) (UniProt P47898); assay: Inhibition of 5HTR5A (unknown origin) at 1 uM relative to control
[4] = Toxicity in male athymic nude BALB/c mouse xenografted with human HCT-116 cells assessed as change in body weight at 1 to 10 mg/kg, ip administered once daily and measured after 19 days; format: organism-based; conditions: in vivo, 456 h, dose 1-10 mg/kg, time 19 day
HCT-116 [5] = assay: Antiproliferative activity against human HCT-116 cells assessed as inhibition of cell proliferation incubated for 24 to 48 hrs by CCK-8 assay; format: functional, cell-based; conditions: dose 1.5-12.5 µM, time 24-48 hrs
HCT-116 [6] = assay: Induction of cell cycle arrest at sub-G1 phase in human HCT-116 cells assessed as increase in p21 protein expression at 5 to 10 uM incubated for 24 hrs by Western blotting analysis; format: functional, cell-based; conditions: dose 5-10 µM
HCT-116 [7] = assay: Induction of cell cycle arrest in human HCT-116 cells assessed as increase in sub-G1 phase cells incubated for 24 hrs by PI/RNase staining based flow cytometric analysis; format: functional; conditions: dose 5-10 µM
hERG (KCNH2) = hERG (KCNH2) (Homo sapiens, UniProt Q12809); assay: Inhibition of hERG at 10 uM relative to control; format: toxicity
SW-620 [8] = assay: Induction of cell cycle arrest in human SW620 cells assessed as increase in sub-G1 phase cells incubated for 24 hrs by PI/RNase staining based flow cytometric analysis; format: functional; conditions: dose 5-10 µM
SW-620 [9] = assay: Induction of apoptosis in human SW620 cells assessed as increase in cleaved caspase 3 expression incubated for 24 hrs by Western blotting analysis; format: functional, cell-based; conditions: dose 5-10 µM
SW-620 [10] = assay: Antitumor activity against human SW620 cells xenografted in male athymic nude BALB/c mouse assessed as tumor growth inhibition administered intraperitoneally once daily relative to control; format: functional; conditions: dose 10-50 mg/kg, route ip
[11] = molecular target: 5-hydroxytryptamine receptor 2A (Homo sapiens, UniProt P28223); assay: Antagonist activity at 5HTR2A (unknown origin) assessed as inhibition of 5-HTR2A
[12] = molecular target: T2, 5-hydroxytryptamine receptor 2B (Homo sapiens, UniProt P41595); assay: Inhibition of 5HTR2B (unknown origin)
[13] = AUCt in male mouse at 2 mg/kg, iv; format: ADME, organism-based; conditions: in vivo
CYP3A4 = CYP3A4 (Homo sapiens, UniProt P08684); assay: Inhibition of CYP3A4 (unknown origin) at 10 uM relative to control; format: ADME
SW-620 [14] = assay: Induction of apoptosis in human SW620 cells assessed as increase in apoptotic cells at 5 to 10 uM incubated for 24 hrs by Annexin V/propidium iodide staining based FACS assay; format: functional, cell-based; conditions: dose 5-10 µM
HCT-116 [15] = assay: Antitumor activity against human HCT-116 cells xenografted in male athymic nude BALB/c mouse assessed as tumor growth inhibition at 10 mg/kg, ip measured after 19 days relative to control; format: functional; conditions: HCT-116, 456 h, time 19 day, read-out: TGI
[16] = Drug concentration in male ICR mouse brain at 10 mg/kg, ip measured after 3 hr; format: ADME, organism-based; conditions: read-out: Ct
[17] = Drug concentration in male ICR mouse plasma at 10 mg/kg, ip measured after 1 hr; format: ADME, organism-based
SW-620 [18] = assay: Induction of apoptosis in human SW620 cells assessed as upregulation of acetylated P53 protein expression at 5 to 10 uM incubated for 24 hrs by Western blotting analysis; format: functional, cell-based; conditions: dose 5-10 µM
[19] = Drug concentration in male ICR mouse brain at 10 mg/kg, ip measured after 1 hr; format: ADME, organism-based; conditions: read-out: Ct
SW-620 [20] = assay: Antitumor activity against human SW620 cells xenografted in male athymic nude BALB/c mouse assessed as tumor growth inhibition at 10 mg/kg, ip administered once daily relative to control; format: functional; conditions: read-out: TGI
SW-620 [21] = assay: Induction of apoptosis in human SW620 cells assessed as increase in cleaved PARP expression incubated for 24 hrs by Western blotting analysis; format: functional, cell-based; conditions: dose 5-10 µM
SW-620 [22] = assay: Induction of apoptosis in human SW620 cells assessed as upregulation of total P53 protein expression at 5 to 10 uM incubated for 24 hrs by Western blotting analysis; format: functional, cell-based; conditions: dose 5-10 µM
RKO [23] = assay: Antiproliferative activity against human RKO cells assessed as inhibition of cell proliferation incubated for 24 to 48 hrs by CCK-8 assay; format: functional, cell-based; conditions: dose 1.5-12.5 µM, time 24-48 hrs
[24] = Volume of distribution at steady state in male mouse at 2 mg/kg, iv; format: ADME, organism-based; conditions: in vivo, read-out: Vdss
[25] = molecular target: T2, 5-hydroxytryptamine receptor 2B; assay: Inhibition of 5HTR2B (unknown origin) at 1 uM relative to control
RKO [26] = assay: Antiproliferative activity against human RKO cells assessed as inhibition of cell proliferation at 1.5 to 12.5 uM by CCK-8 assay; format: functional, cell-based; conditions: dose 1.5-12.5 µM, time 24-48 hrs

T2 sequence (P41595 whole entry): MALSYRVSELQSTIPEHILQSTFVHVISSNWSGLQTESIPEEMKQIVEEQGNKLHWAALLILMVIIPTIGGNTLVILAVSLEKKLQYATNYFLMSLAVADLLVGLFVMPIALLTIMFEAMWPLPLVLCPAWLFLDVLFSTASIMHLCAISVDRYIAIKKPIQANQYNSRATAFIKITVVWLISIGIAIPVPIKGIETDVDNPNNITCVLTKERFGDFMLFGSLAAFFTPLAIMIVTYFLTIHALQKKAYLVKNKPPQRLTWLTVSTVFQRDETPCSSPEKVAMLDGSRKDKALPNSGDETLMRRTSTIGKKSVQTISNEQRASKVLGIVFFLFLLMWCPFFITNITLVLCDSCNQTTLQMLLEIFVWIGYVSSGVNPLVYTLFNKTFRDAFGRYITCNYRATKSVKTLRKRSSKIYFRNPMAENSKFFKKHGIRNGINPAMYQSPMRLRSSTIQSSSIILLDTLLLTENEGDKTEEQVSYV
Sequence of CYP3A4 (P08684 whole entry): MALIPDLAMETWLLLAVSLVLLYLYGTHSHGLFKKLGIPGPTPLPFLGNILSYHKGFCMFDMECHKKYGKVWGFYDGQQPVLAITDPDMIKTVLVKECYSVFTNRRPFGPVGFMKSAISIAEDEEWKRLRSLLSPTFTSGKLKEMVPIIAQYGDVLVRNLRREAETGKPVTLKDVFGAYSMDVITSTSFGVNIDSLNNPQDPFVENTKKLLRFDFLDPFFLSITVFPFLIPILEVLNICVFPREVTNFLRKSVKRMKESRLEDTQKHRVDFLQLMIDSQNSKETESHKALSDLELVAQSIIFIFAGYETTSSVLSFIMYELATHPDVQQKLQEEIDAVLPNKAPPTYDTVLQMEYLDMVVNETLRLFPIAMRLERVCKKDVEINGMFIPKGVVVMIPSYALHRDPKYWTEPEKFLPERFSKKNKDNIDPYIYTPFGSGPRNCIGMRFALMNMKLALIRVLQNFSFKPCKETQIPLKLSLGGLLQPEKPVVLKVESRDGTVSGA
Sequence of hERG (KCNH2) (Q12809 whole entry): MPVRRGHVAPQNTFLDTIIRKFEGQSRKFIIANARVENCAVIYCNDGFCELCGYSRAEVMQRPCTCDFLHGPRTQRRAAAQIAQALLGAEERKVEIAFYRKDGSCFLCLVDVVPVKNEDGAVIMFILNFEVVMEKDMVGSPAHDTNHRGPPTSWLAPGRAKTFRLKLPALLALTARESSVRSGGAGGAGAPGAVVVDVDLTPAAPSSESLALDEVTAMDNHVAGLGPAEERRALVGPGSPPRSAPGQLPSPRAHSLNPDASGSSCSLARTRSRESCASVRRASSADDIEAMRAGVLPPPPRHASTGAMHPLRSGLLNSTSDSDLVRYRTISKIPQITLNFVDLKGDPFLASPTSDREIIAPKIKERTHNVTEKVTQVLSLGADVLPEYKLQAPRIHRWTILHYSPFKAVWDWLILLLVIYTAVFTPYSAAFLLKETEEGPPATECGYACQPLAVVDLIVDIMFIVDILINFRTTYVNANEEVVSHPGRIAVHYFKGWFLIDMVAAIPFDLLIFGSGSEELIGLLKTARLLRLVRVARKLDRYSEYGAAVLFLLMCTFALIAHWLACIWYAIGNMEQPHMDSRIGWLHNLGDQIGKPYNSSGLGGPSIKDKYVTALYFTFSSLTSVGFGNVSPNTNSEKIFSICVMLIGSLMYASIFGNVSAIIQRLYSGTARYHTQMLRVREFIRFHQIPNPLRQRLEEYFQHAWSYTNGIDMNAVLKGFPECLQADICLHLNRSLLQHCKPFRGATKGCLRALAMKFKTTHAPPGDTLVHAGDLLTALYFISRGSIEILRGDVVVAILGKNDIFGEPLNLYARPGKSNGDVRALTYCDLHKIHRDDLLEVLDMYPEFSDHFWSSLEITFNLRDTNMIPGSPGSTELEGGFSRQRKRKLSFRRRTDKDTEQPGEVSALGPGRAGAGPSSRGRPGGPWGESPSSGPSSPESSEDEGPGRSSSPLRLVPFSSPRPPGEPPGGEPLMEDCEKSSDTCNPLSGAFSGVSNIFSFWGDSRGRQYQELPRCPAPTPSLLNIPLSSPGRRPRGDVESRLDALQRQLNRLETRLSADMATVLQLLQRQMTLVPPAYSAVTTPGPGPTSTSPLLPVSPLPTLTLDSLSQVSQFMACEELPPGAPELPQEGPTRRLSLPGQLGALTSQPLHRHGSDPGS
Sequence of 5-hydroxytryptamine receptor 5A (Homo sapiens) (P47898 whole entry): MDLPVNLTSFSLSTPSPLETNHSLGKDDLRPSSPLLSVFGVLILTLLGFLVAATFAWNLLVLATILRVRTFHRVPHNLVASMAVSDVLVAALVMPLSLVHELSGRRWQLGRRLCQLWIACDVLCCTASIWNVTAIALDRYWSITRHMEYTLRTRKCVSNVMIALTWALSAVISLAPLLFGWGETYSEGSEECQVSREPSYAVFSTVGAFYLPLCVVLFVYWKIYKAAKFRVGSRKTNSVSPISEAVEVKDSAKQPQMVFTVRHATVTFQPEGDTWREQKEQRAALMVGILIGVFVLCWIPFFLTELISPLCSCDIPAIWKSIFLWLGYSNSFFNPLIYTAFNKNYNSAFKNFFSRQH
Sequence of 5-hydroxytryptamine receptor 2A (P28223 whole entry): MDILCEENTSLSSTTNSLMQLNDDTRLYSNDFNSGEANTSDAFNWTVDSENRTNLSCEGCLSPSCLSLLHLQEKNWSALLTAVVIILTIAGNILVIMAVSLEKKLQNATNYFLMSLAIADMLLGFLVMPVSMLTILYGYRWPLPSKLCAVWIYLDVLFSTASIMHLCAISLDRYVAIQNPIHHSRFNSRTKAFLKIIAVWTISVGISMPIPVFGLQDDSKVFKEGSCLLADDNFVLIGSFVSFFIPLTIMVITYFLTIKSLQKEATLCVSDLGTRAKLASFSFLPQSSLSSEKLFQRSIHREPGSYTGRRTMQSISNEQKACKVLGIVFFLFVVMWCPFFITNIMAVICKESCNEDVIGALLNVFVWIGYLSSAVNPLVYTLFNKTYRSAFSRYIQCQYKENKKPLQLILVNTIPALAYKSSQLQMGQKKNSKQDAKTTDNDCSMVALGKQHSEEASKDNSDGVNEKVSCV

SMILES: Cl.Cl.O=C(NCc1ccc(OCC(O)CN2CCN(c3noc4cc(F)ccc34)CC2)cc1)N(Cc1ccc(F)cc1)C1CCNCC1 (centres undefined)
- Activity (SW480): Time-dependent-effect
- inhibition [1]: 44%
- Activity (SW-620 [2]): Time-dependent-effect
- inhibition [3]: 10%
- Activity [4]: Non-toxic
- Activity (HCT-116 [5]): Dose-dependent-effect
- Activity (HCT-116 [6]): Active
- Activity (HCT-116 [7]): Dose-dependent-effect
- inhibition at 10 µM (hERG (KCNH2)): 52%
- Activity (SW-620 [8]): Dose-dependent-effect
- Activity (SW-620 [9]): Dose-dependent-effect
- Activity (SW-620 [10]): Dose-dependent-effect
- IC50 [11]: 42.8 nM
- IC50 [12]: 621 nM
- AUC(0-t) [13]: 300 ng·h/mL
- inhibition at 10 µM (CYP3A4): 9.6%
- Activity (SW-620 [14]): Active
- inhibition in vivo at 10 mg/kg (HCT-116 [15]): 53.3%
- concentration at 3 h [16]: < 0.5 ng/g
- concentration at 1 h [17]: 463 ng/mL
- Activity (SW-620 [18]): Active
- concentration at 1 h [19]: < 0.5 ng/g
- inhibition in vivo at 10 mg/kg (SW-620 [20]): 30.8%
- Activity (SW-620 [21]): Dose-dependent-effect
- Activity (SW-620 [22]): Active
- Activity (RKO [23]): Dose-dependent-effect
- Vd [24]: 83.9 L/kg
- inhibition [25]: 84.8%
- Activity (RKO [26]): Time-dependent-effect
